{
  "source": "patent US20260294885A1",
  "about": "“TREATMENT OF INFLAMMATORY CONDITIONS COMPRISING IMU-856” (IMMUNIC AG, priority 2023, published 2026)",
  "tested_on": "claudin-2",
  "experiment": "Tight junction protein claudin-2 in a TEER model",
  "type": "cell-based, human",
  "excerpt": "In one TEER model, tight junction (TJ)-related proteins were investigated, and a normalisation of TJ proteins (claudin (Cldn)-1 and claudin-2) was observed.",
  "data": [
    {"compound": "Cn1c(COc2cc(C(F)(F)F)ccn2)nnc1[C@H]1CC[C@H](c2cnn([C@H]3CC[C@H](N4CC5(CCO5)C4)CC3)c2)CC1", "note": "[IMU-856, 6-(trans-4-(4-(trans-4-(4-methyl-5-(((4-(trifluoromethyl)pyridin-2-yl)oxy)methyl)-4H-1,2,4-triazol-3-yl)cyclohexyl)-1H-pyrazol-1-yl)cyclohexyl)-1-oxa-6-azaspiro[3.3]heptane]", "values": [
      {"measurement": "claudin-2", "result": "normalisation"}
    ]}
  ]
}
